Data taken from article PMC11085308, “Design, Synthesis and Biological Activity of Novel Methoxy- and Hydroxy-Substituted N-Benzimidazole-Derived Carboxamides” (Molecules, 2024).
Converted amounts (≈) assume the structure as drawn. “Also recorded” adds a separate entry of the source.

What was measured:
[1] = ABTS radical scavenging assay; settings: for IC50: head prints 'mM (* µM)', no cell carries an asterisk
Text: (§1) The synthesized benzazole acrylonitrile derivatives were screened for their antioxidative potency by using in vitro assays, namely DPPH and ABTS as free radical scavenging assays and FRAP as a ferric reducing/antioxidant power assay.
(§2) The well-known antioxidant butylated hydroxytoluene (BHT) was used as a standard for comparing activity during testing. The DPPH assay is a standard commonly used test for the in vitro assessment of the antioxidant capacity of novel compounds by using their ability to scavenge the stable radical 1,1-diphenyl-picrylhydrazyl. […] Another test used to evaluate the antioxidative capacity of novel compounds was the ABTS test, by which their activity was evaluated by scavenging the stable radical 3-ethylbenzthiazoline-6-sulphonic acid.
The total antioxidant activity (TEAC) method was adapted for use with a microplate reader. […] On the day of analysis, the ABTS•+ solution was diluted with PBS (pH7.4) to attain an absorbance of 0.700 ± 0.01 at 734 nm. This radical state remained stable for over two days when stored in the dark at room temperature. The standards and solutions of the tested compounds (10 µL) were mixed with the working ABTS•+ solution (200 µL) in microplate wells and incubated at room temperature for 5 min. The reduction in absorbance at 734 nm was measured using a µQuant (Biotec Inc., Auburn, CA, USA) microplate reader. The percentage scavenging of the test samples at each concentration was calculated using the following formula:[(Abscontrol − Abscompound)/Abscontrol] × 100
The IC50 values for each compound were calculated from dose–response curves. All measurements where carried out in triplicate with a linear regression analysis.

H460 (lung carcinoma) = test: Antiproliferative activity in vitro, MTT assay, 72 h; assay type: cell-based; settings: Homo sapiens, NCI-H460, 72 h incubation
Protocol: (§3) The experiments were carried out on four human cell lines which are derived from three cancer types: H460 (lung carcinoma), HCT 116 (colorectal carcinoma), MCF-7 (human breast cancer) and the non-cancerous cell line HEK 293 (human embryonic kidney).
(§4) The results are compared with the known antiproliferative agents doxorubicin and etoposide. […] Therefore, it is not clear whether the observed antiproliferative activity is due to the biological activity of the compounds or to precipitation.
(§5) The experiments were performed on four human cell lines, including HCT 116 (colon carcinoma), H 460 (lung carcinoma), MCF-7 (breast carcinoma) and HEK 293 (human embryonic kidney cells), in line with previously published experimental procedures. Briefly, the cells were grown in DMEM medium with the addition of 10% fetal bovine serum (FBS), 2 mM of L-glutamine, 100 U/mL of penicillin and 100 µg/mL of streptomycin and cultured as monolayers at 37 °C in a humidified atmosphere with 5% CO2. Cells were seeded at 2 × 10^3 cells/well in standard 96-well microtiter plates and left to attach for 24 h. The next day, a test compound was added in five serial 10-fold dilutions. The rate of cell growth was evaluated after 72 h of incubation with MTT assays. […] Each test was performed in quadruplicate in at least two individual experiments.

[2] = test system: HCT 116 (colorectal carcinoma); test: as above; assay type: cell-based; settings: Homo sapiens, 72 h incubation, '-' with footnote a = did not show biological activity due to precipitation
Protocol: as §3, §4, §5

[3] = test system: MCF-7 (human breast cancer); test: as above; assay type: cell-based; settings: MCF7, 72 h incubation
Protocol: as §3, §4, §5

[4] = test system: HEK 293 (human embryonic kidney); test: Antiproliferative activity in vitro, MTT assay, 72 h, non-cancerous cell line; assay type: cell-based; settings: HEK293, 72 h incubation, '-' with footnote a = did not show biological activity due to precipitation
Protocol: as §3, §4, §5

[5] = Ferric reducing/antioxidant power (FRAP assay); parameters: FRAP: unit not given here; settings: for FRAP: Fe2+ equivalents, triplicate; for FRAP ferric reducing/antioxidant power, in words: compared to the standard BHT
Protocol: as §1
The antioxidant activity of a substance is directly related to its reducing power.
The FRAP method was carried out according to previously described procedures with some modifications to make it compatible with an assay on a 96-well microplate. All results were expressed as Fe^2+ equivalents (Fe^2+ µmol). Ferrous sulphate (FeSO4 × 7H2O) was used to develop a standard curve of 20–2000 µmol/l for the FRAP test.

S. aureus ATCC 29213 = test: Antibacterial activity in vitro, broth microdilution MIC; assay type: cell-based, Staphylococcus aureus; settings: for MIC S. aureus ATCC 29213: broth microdilution, 16–24 h at 37 °C, unit inferred
Protocol: (§6) The in vitro antibacterial activity of the synthesized benzamides 7–12 and 31–37 was evaluated against a panel of eight different bacterial strains. The Gram-positive bacterial strains comprised S. aureus, S. pneumoniae and E. faecalis, and the panel of Gram-negative bacteria consisted of E. coli, K. pneumoniae, A. baumannii and P. aeruginosa.
(§7) The selected bacterial strains were Gram-negative Escherichia coli (ATCC 25922) and Gram-positive Staphylococcus aureus (ATCC 29213) and S. Pneumoniae (ATCC 49619). The Saccharomyces cerevisiae ATCC 7752 strain was tested as a eukaryotic model organism. Synthesized compounds were prepared as 10 mM DMSO solutions and tested in a final concentration range of 100–0.2 µM [39].
(§8) Broth microdilution testing was performed according to CLSI (Clinical Laboratory Standards Institute) guidelines. The MIC (minimal inhibitory concentration) value was defined as the last tested concentration of a compound at which there is no visible growth of bacteria. Inoculums for each microorganism were prepared using the direct colony suspension method, where broth solutions that achieved turbidity equivalent to 0.5 McFarland standards were additionally diluted 100× with cation-adjusted MH media (Becton Dickinson). All test plates were incubated for 16–24 h at 37 °C.

A. baumannii ATCC 17978 = test: as above; assay type: cell-based; settings: 16–24 h at 37 °C, unit inferred
Protocol: as §6, §7, §8

E. faecalis ATCC 29212 = test: as above; assay type: cell-based; settings: for Selectivity of antibacterial activity, in words: against the Gram-positive strain E. faecalis; for MIC E. faecalis ATCC 29212: broth microdilution, 16–24 h at 37 °C, unit inferred
Protocol: as §6, §7, §8

P. aeruginosa ATCC 27853 = test: as above; assay type: cell-based; settings: 16–24 h at 37 °C, unit inferred
Protocol: as §6, §7, §8

E. coli ATCC 25922 = test: as above; assay type: cell-based, Escherichia coli; settings: 16–24 h at 37 °C, unit inferred
Protocol: as §6, §7, §8

E. coli efflux del. = test: microbe, parasite or virus in culture; assay type: cell-based, Escherichia coli; settings: for MIC E. coli efflux del.: broth microdilution, 16–24 h at 37 °C, unit inferred
Protocol: as §6, §7, §8

[6] = DPPH free radical scavenging assay; settings: compared to the standard BHT
Text: as §1, §2
Determination of the reducing activity of the stable radical 1,1-diphenyl-picrylhydrazyl (DPPH):
The reducing activity of the investigated systems was measured by the DPPH method according to previously described procedures with modifications to ensure their use on a 96-well microplate. Briefly, equal volumes of various concentrations of the tested molecules (dissolved in DMSO) were added to a solution of DPPH (final concentration of 50 µM in absolute ethanol). Ethanol and DMSO were used as control solutions in line with earlier reports. The radical scavenging activity was calculated using the following formula:[(A517 control − A517 compound)/A517 control] × 100.
The IC50 values were calculated from dose–response curves using nonlinear regression analysis with the GraphPad Prism 8 Ink. program. All measurements were carried out in triplicate.

## Cc1cc(C(C)(C)C)c(O)c(C(C)(C)C)c1 [BHT, butylated hydroxytoluene, reference compound]
[1]
  IC50: 0.02312 ± 0.00012 mM

## O=C(Nc1nc2ccccc2[nH]1)c1ccc(O)cc1O [Compound 31, N-(1H-benzo[d]imidazol-2-yl)-2,4-dihydroxybenzamide]
H460 (lung carcinoma)
  IC50: > 100 µM
[2]
  IC50: 38.6 ± 15.6 µM
[3]
  IC50: 35.1 ± 6.9 µM
[4]
  IC50: 24.5 ± 6.4 µM
[5]
  FRAP: 89.29 ± 21.92
[1]
  IC50: 0.13 ± 0.006 mM
S. aureus ATCC 29213
  MIC S. aureus ATCC 29213: > 64 µM
A. baumannii ATCC 17978
  MIC A. baumannii ATCC 17978: > 64 µM
E. faecalis ATCC 29212
  Selectivity of antibacterial activity, in words: selective antibacterial activity
  MIC E. faecalis ATCC 29212: 32 µM (≈ 8.62 µg/mL)
P. aeruginosa ATCC 27853
  MIC P. aeruginosa ATCC 27853: > 64 µM
E. coli ATCC 25922
  MIC E. coli ATCC 25922: > 64 µM
E. coli efflux del.
  MIC E. coli efflux del.: 64 µM (≈ 17.2 µg/mL)
other
  melting point: 212 to 214 °C

## O=C(Nc1nc2ccccc2n1-c1ccccc1)c1cc(O)c(O)c(O)c1 [Compound 34, 3,4,5-Trihydroxy-N-(1-phenyl-1H-benzo[d]imidazol-2-yl)benzamide]
H460 (lung carcinoma)
  IC50: > 100 µM
[2]
  IC50: > 100 µM
[3]
  IC50: 49.4 ± 27.3 µM
[4]
  IC50: 85.1 ± 8.8 µM
[5]
  FRAP: 6.83 ± 1.26
  FRAP ferric reducing/antioxidant power, in words: very low
[6]
  DPPH free radical scavenging activity, in words: significantly improved; also recorded: exceptional activity
S. aureus ATCC 29213
  MIC S. aureus ATCC 29213: > 64 µM
A. baumannii ATCC 17978
  MIC A. baumannii ATCC 17978: > 64 µM
E. faecalis ATCC 29212
  Selectivity of antibacterial activity, in words: selective antibacterial activity
  MIC E. faecalis ATCC 29212: 32 µM (≈ 11.6 µg/mL)
P. aeruginosa ATCC 27853
  MIC P. aeruginosa ATCC 27853: > 64 µM
E. coli ATCC 25922
  MIC E. coli ATCC 25922: > 64 µM
E. coli efflux del.
  MIC E. coli efflux del.: > 64 µM
other
  melting point: 278 to 281 °C

## Cn1c(NC(=O)c2ccc(O)cc2O)nc2cc(C#N)ccc21 [Compound 35, N-(5-cyano-1-methyl-1H-benzo[d]imidazol-2-yl)-2,4-dihydroxybenzamide]
H460 (lung carcinoma)
  IC50: > 100 µM
[2]
  IC50: 10 ± 1.6 µM
[3]
  IC50: 8.7 ± 1.5 µM
[4]
  IC50: 33.5 ± 6.5 µM
[5]
  FRAP: 278.61 ± 3.28
[1]
  IC50: 0.19 ± 0.04 mM
S. aureus ATCC 29213
  MIC S. aureus ATCC 29213: > 64 µM
A. baumannii ATCC 17978
  MIC A. baumannii ATCC 17978: > 64 µM
E. faecalis ATCC 29212
  Selectivity of antibacterial activity, in words: selective antibacterial activity
  MIC E. faecalis ATCC 29212: 16 µM (≈ 4.93 µg/mL)
P. aeruginosa ATCC 27853
  MIC P. aeruginosa ATCC 27853: > 64 µM
E. coli ATCC 25922
  MIC E. coli ATCC 25922: > 64 µM
E. coli efflux del.
  MIC E. coli efflux del.: 64 µM (≈ 19.7 µg/mL)
other
  melting point: 273 to 275 °C

## CCCCCCn1c(NC(=O)c2cc(O)c(O)c(O)c2)nc2cc(C#N)ccc21 [Compound 37, N-(5-cyano-1-hexyl-1H-benzo[d]imidazol-2-yl)-3,4,5-trihydroxybenzamide]
H460 (lung carcinoma)
  IC50: 47 ± 8.7 µM
[2]
  IC50: 37.8 ± 6 µM
[3]
  IC50: 38.2 ± 3.2 µM
[4]
  IC50: 37.9 ± 0.4 µM
[5]
  FRAP: 2780.81 ± 15.12
  FRAP ferric reducing/antioxidant power, in words: excellent in vitro antioxidant activity
[1]
  IC50: 0.002 ± 0.0001 mM
[1]; in comparison to the standard BHT
  ABTS antioxidative activity, in words: pronounced antioxidative activity
[6]
  DPPH free radical scavenging activity, in words: significantly improved
S. aureus ATCC 29213; Staphylococcus aureus, ATCC29213, read-out: MIC S. aureus
  MIC: 16 µM (≈ 6.31 µg/mL)
S. aureus ATCC 29213
  MIC S. aureus ATCC 29213: 16 µM (≈ 6.31 µg/mL)
A. baumannii ATCC 17978
  MIC A. baumannii ATCC 17978: > 64 µM
E. faecalis ATCC 29212; Enterococcus faecalis, ATCC29212, read-out: MIC E. faecalis
  MIC: 16 µM (≈ 6.31 µg/mL)
E. faecalis ATCC 29212
  Selectivity of antibacterial activity, in words: selective antibacterial activity
  MIC E. faecalis ATCC 29212: 16 µM (≈ 6.31 µg/mL)
P. aeruginosa ATCC 27853
  MIC P. aeruginosa ATCC 27853: > 64 µM
E. coli ATCC 25922
  MIC E. coli ATCC 25922: > 64 µM
E. coli efflux del.; Escherichia coli, read-out: MIC E. coli efflux del.
  MIC: 16 µM (≈ 6.31 µg/mL)
E. coli efflux del.
  MIC E. coli efflux del.: 16 µM (≈ 6.31 µg/mL)
other
  melting point: 290 to 294 °C
